Three compounds from ChEMBL document CHEMBL1139406, “Anti-HIV-1 activity of phloroglucinol derivative, 6,6'-bieckol, from Ecklonia cava” (Bioorg Med Chem, 2008) can be followed below.

Series [1] has as its system Human immunodeficiency virus 1. The series can be described thus: Antiviral activity against HIV1 3B in human H9 cells assessed as inhibition of p24 antigen production at 5 uM by ELISA. In kind it is functional, organism-based.
Another series concerns the target Protease (Human immunodeficiency virus 1, UniProt Q9YQ12). The series can be described thus: (§1) Inhibition of HIV1 3B recombinant protease.
Series [2] has as its target Human immunodeficiency virus type 1 reverse transcriptase (Human immunodeficiency virus 1, UniProt Q72547). The series is described as follows: Inhibition of HIV1 3B reverse transcriptase activity.
Series [3] relates to Human immunodeficiency virus 1. The series is described as follows: Antiviral activity against HIV1 3B in human CEM-SS cells assessed as inhibition of viral-induced lytic effect after 7 days by MTT assay. In kind it is functional, organism-based. The note with it: Human immunodeficiency virus 1, 3B, 168 h. (Tetrazolium dyes change colour on reduction, which living cells bring about.)

For series [4], the system named is Human immunodeficiency virus 1. The series can be described thus: Antiviral activity against HIV1 3B in human CEM-SS cells assessed as inhibition of viral-induced lytic effect at 25 uM after 7 days by MTT assay. In kind it is functional. Further details: scale not given: the % may be the effect or the level left.
Series [5] has as its system Human immunodeficiency virus 1. The series is described as follows: Antiviral activity against HIV1 3B in human H9 cells assessed as inhibition of p24 antigen production by ELISA. In kind it is functional, organism-based. The note with it: Human immunodeficiency virus 1, 3B. For orientation: ELISA stands for enzyme-linked immunosorbent assay.
The target in series [6] is Human immunodeficiency virus type 1 reverse transcriptase (Human immunodeficiency virus 1) (UniProt Q72547). The series is described as follows: Inhibition of HIV1 3B reverse transcriptase activity at 1 uM.
For series [7] the target is unchanged. The series is described as follows: Inhibition of HIV1 3B reverse transcriptase activity at 10 uM.
In series [8] the test system is Human immunodeficiency virus 1. The series is described as follows: Antiviral activity against HIV1 3B in human C8166 co-cultivated with H9 cells assessed as inhibition of cell-cell fusion after 72 hrs. In kind it is functional, organism-based.
For series [9], the system named is Human immunodeficiency virus 1. The series can be described thus: Antiviral activity against HIV1 3B in human C8166 co-cultivated with H9 cells assessed as inhibition of cell-virus fusion after 72 hrs. In kind it is functional, organism-based.
Series [10] deals with Human immunodeficiency virus 1. The series can be described thus: Antiviral activity against HIV13B in human C8166 co-cultivated with H9 cells assessed as inhibition of viral-induced syncytia formation at 25 uM after 72 hrs. In kind it is functional, 3B. Further details: scale not given: the % may be the effect or the level left.
The target of series [11] is Protease (Human immunodeficiency virus 1) (UniProt Q9YQ12). The series is described as §1.
Series [12] has as its system Human immunodeficiency virus 1. The series is described as follows: Antiviral activity against HIV1 3B in human H9 cells assessed as inhibition of p55 gag protein production after 4 days by Western blot analysis. In kind it is functional, organism-based.
The subject of series [13] is Human immunodeficiency virus 1. The series can be described thus: Antiviral activity against HIV1 3B in human H9 cells assessed as inhibition of p41 gag protein production after 4 days by Western blot analysis. In kind it is functional, organism-based. Background: In western blotting, separated proteins are transferred to a membrane and probed.
A short description of series [14]: Cytotoxicity against human CEM-SS cells after 72 hrs by MTT assay. In kind it is cell-based.
The subject of series [15] is Human immunodeficiency virus 1. The series can be described thus: Antiviral activity against HIV1 3B in human C8166 cells assessed as inhibition of viral-induced syncytia formation after 72 hrs. In kind it is functional, organism-based. The note with it: Human immunodeficiency virus 1, 3B, C8166, 72 h.
In series [16] the test system is Human immunodeficiency virus 1. The series can be described thus: Antiviral activity against HIV1 3B in human C8166 cells assessed as inhibition of viral-induced syncytia formation at 25 uM after 72 hrs. Further details: scale not given: the % may be the effect or the level left. In kind it is functional.
For series [17], the system named is Human immunodeficiency virus 1. The series is described as follows: Antiviral activity against HIV1 3B in human H9 cells assessed as inhibition of p24 gag protein production after 4 days by Western blot analysis. In kind it is functional, organism-based.
Series [18] in a line: Therapeutic index, ratio of CC50 for human CEM-SS cells to IC50 for HIV1 induced lytic effect. In kind it is cell-based. The note with it: read-out: TI.
The subject of another series is CEM-SS. The series is described as follows: Cytotoxicity against human CEM-SS cells up to 500 by MTT assay. In kind it is cell-based.
In series [19] the test system is Human immunodeficiency virus 1. The series can be described thus: Antiviral activity against HIV1 3B in human H9 cells assessed as inhibition of p24 antigen production at 10 uM by ELISA. The note with it: Human immunodeficiency virus 1, 3B. In kind it is functional.
Series [20] deals with Human immunodeficiency virus 1. The series can be described thus: Antiviral activity against HIV1 3B in human H9 cells assessed as inhibition of p24 antigen production at 25 uM by ELISA. In kind it is functional, organism-based.

The source made the active and inactive calls. The rule behind the calls is not given here.

Sequence of Protease (Human immunodeficiency virus 1) (Q9YQ12 as listed by the source): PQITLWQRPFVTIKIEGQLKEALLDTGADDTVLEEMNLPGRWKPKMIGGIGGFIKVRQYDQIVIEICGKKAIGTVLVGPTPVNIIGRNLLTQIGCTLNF
Sequence of Protease (Q9YQ12 whole entry): as the sequence (Q9YQ12 as listed by the source) above

Consider `Cc1cn([C@H]2C[C@H](N=[N+]=[N-])[C@@H](CO)O2)c(=O)[nH]c1=O`, for which the outcome in series [1] was Active.

By IC50 is commonly meant the concentration that gives 50% inhibition. Broadly, the EC50 is the concentration that produces a half-maximal response. With `Oc1cc(O)cc(Oc2c(O)cc(O)c3c2Oc2c(cc(O)c(-c4c(O)cc5c(c4O)Oc4c(Oc6cc(O)cc(O)c6)c(O)cc(O)c4O5)c2O)O3)c1`, the IC50 at Protease stood at 81500 nM. This compound also came in with an EC50 in series [2] of 510 nM.

Broadly, the inhibition is how much of the control response was suppressed. Usually CC50 stands for the concentration giving 50% cytotoxicity. For the compound `Oc1cc(O)cc(Oc2c(O)cc(O)c3c2Oc2c(O)cc(O)c(-c4c(O)cc(O)c5c4Oc4c(O)cc(O)c(Oc6cc(O)cc(O)c6)c4O5)c2O3)c1`, the EC50 in [3] came to 1230 nM; in series [5], 1260 nM; in [2] it was 1070 nM; in [15], 1720 nM. Also, the Activity in [4] was more than 96%; in series [10], 80%; in [16], 88%; in series [17], “Dose-dependent effect”; in the series on CEM-SS it was “Non-toxic”. Also, the inhibition was determined as 50.5% in series [6] and 96.3% in series [7]. In addition, the result in [8], in series [9], in series [12], in [13] and in series [20] was Active. Moreover, the result in series [11] was inactive. In series [14], this compound had a CC50 at 72 h of 484000 nM. In series [18], the selectivity ratio is 393. Besides, the inhibition at 10 µM in [19] is 90%.
